Laboratory results: patent US20210267203A1, “PESTICIDALLY ACTIVE AZOLE-AMIDE COMPOUNDS” (SYNGENTA PARTICIPATIONS AG, priority 2018, published 2021)

Legend:
Format in all cases: in vivo
[1] = test system: Plutella xylostella (Diamond Back Moth); assay: Example B5: Plutella xylostella (diamond back moth), artificial diet, 24-well, eggs; settings: 192 h, application rate 200 ppm, 8 days after infestation, read-out: effect in at least one of the two categories (mortality or growth inhibition)
Method: Example B5: Plutella xylostella (Diamond Back Moth)
24-well microtiter plates with artificial diet were treated with aqueous test solutions prepared from 10,000 ppm DMSO stock solutions by pipetting. After drying, Plutella eggs were pipetted through a plastic stencil onto a gel blotting paper and the plate was closed with it. The samples were assessed for mortality and growth inhibition in comparison to untreated samples 8 days after infestation. The following compounds gave an effect of at least 80% in at least one of the two categories (mortality or growth inhibition) at an application rate of 200 ppm: […]

[2] = test system: Myzus persicae (Green Peach Aphid); assay: Example B13: activity against Myzus persicae (green peach aphid), 96-well sucrose solution; settings: 120 h, application rate 50 ppm, 5 days after infestation
Excerpt: Example B13: Activity Against Myzus persicae (Green Peach Aphid)
Test compounds prepared from 10,000 ppm DMSO stock solutions were applied by a liquid handling robot into 96-well microtiter plates and mixed with a sucrose solution. Parafilm was stretched over the 96-well microtiter plate and a plastic stencil with 96 holes was placed onto the plate. Aphids were sieved into the wells directly onto the Parafilm. The infested plates were closed with a gel blotting card and a second plastic stencil and then turned upside down. The samples were assessed for mortality 5 days after infestation.

[3] = test system: Spodoptera littoralis (Egyptian Cotton Leaf Worm); assay: Example B9: Spodoptera littoralis (Egyptian cotton leaf worm), cotton leaf discs sprayed, L1 larvae; settings: foliar, 72 h, application rate 200 ppm, 3 days after infestation
Method: Example B9: Spodoptera littoralis (Egyptian Cotton Leaf Worm)
Cotton leaf discs were placed onto agar in 24-well microtiter plates and sprayed with aqueous test solutions prepared from 10,000 ppm DMSO stock solutions. After drying the leaf discs were infested with five L1 larvae. The samples were assessed for mortality, anti-feeding effect, and growth inhibition in comparison to untreated samples 3 days after infestation. Control of Spodoptera littoralis by a test sample is given when at least one of the three categories (i.e. mortality, anti-feedant effect, and growth inhibition) is higher than the untreated sample.

[4] = test system: Euschistus heros (Neotropical Brown Stink Bug); assay: Example B2: Euschistus heros (neotropical brown stink bug), soybean leaves sprayed, N2 nymphs; settings: 120 h, application rate 200 ppm, 5 days after infestation, read-out: effect in at least one of the two categories (mortality or growth inhibition)
Method: Example B2: Euschistus heros (Neotropical Brown Stink Bug)
Soybean leaves on agar in 24-well microtiter plates were sprayed with aqueous test solutions prepared from 10,000 ppm DMSO stock solutions. After drying the leaves were infested with N2 nymphs. The samples were assessed for mortality and growth inhibition in comparison to untreated samples 5 days after infestation.
(§1) The following compounds gave an effect of at least 80% in at least one of the two categories (mortality or growth inhibition) at an application rate of 200 ppm: […]

[5] = test system: Myzus persicae (Green Peach Aphid); assay: Example B8: Myzus persicae (green peach aphid), intrinsic activity; settings: 120 h, test rate 12 ppm, sucrose solution, 24-well, 5 days after infestation
Excerpt: Example B8: Myzus persicae (Green Peach Aphid), Intrinsic Activity
Test compounds prepared from 10,000 ppm DMSO stock solutions were applied by pipette into 24-well microtiter plates and mixed with sucrose solution. The plates were closed with a stretched Parafilm. A plastic stencil with 24 holes was placed onto the plate and infested pea seedlings were placed directly on the Parafilm. The infested plate was closed with a gel blotting paper and another plastic stencil and then turned upside down. The samples were assessed for mortality 5 days after infestation.

[6] = test system: Chilo suppressalis (Striped Rice Stemborer); assay: Example B4: Chilo suppressalis (striped rice stemborer), artificial diet, L2 larvae; settings: 144 h, application rate 200 ppm, 6 days after infestation
Method: Example B4: Chilo suppressalis (Striped Rice Stemborer)
24-well microtiter plates with artificial diet were treated with aqueous test solutions prepared from 10,000 ppm DMSO stock solutions by pipetting. After drying, the plates were infested with L2 larvae (6-8 per well). The samples were assessed for mortality, anti-feeding effect, and growth inhibition in comparison to untreated samples 6 days after infestation. Control of Chilo suppressalis by a test sample is given when at least one of the categories (i.e. mortality, anti-feedant effect, and growth inhibition) is higher than the untreated sample.

[7] = test system: Diabrotica Balteata (Corn Root Worm); assay: Example B1: Diabrotica balteata (corn root worm), maize sprouts sprayed, L2 larvae; settings: 96 h, application rate 200 ppm, 4 days after infestation, read-out: effect in at least one of the two categories (mortality or growth inhibition)
Method: Example B1: Diabrotica Balteata (Corn Root Worm)
Maize sprouts placed onto an agar layer in 24-well microtiter plates were treated with aqueous test solutions prepared from 10,000 ppm DMSO stock solutions by spraying. After drying, the plates were infested with L2 larvae (6 to 10 per well). The samples were assessed for mortality and growth inhibition in comparison to untreated samples 4 days after infestation.
as §1

[8] = test system: Myzus persicae (Green Peach Aphid); assay: Example B6: Myzus persicae (green peach aphid), feeding/contact activity; settings: 144 h, application rate 200 ppm, 6 days after infestation
Method: Example B6: Myzus persicae (Green Peach Aphid):Feeding/Contact Activity
Sunflower leaf discs were placed onto agar in a 24-well microtiter plate and sprayed with aqueous test solutions prepared from 10,000 ppm DMSO stock solutions. After drying, the leaf discs were infested with an aphid population of mixed ages. The samples were assessed for mortality 6 days after infestation.

[9] = test system: Plutella xylostella (Diamondback Moth); assay: Example B14: activity against Plutella xylostella (diamondback moth), 96-well artificial diet; settings: 216 h, application rate 500 ppm, 9 days after infestation
Method: Example B14: Activity Against Plutella xylostella (Diamondback Moth)
96-well microtiter plates containing artificial diet were treated with aqueous test solutions, prepared from 10,000 ppm DMSO stock solutions, by a liquid handling robot. After drying, eggs (30 per well) were infested onto a netted lid which was suspended above the diet. The eggs hatch and L1 larvae move down to the diet. The samples were assessed for mortality 9 days after infestation.
The following compounds gave an effect of at least 80% average mortality at an application rate of 500 ppm: […]

[10] = test system: Spodoptera littoralis (Egyptian Cotton Leaf Worm); assay: Example B10: Spodoptera littoralis (Egyptian cotton leaf worm), uptake by lettuce roots from agar, eggs; settings: 144 h, test rate 12.5 ppm, lettuce root uptake, 6 days after infestation, read-out: effect in at least one of the three categories (mortality, anti-feeding, or growth inhibition)
Excerpt: Example B10: Spodoptera littoralis (Egyptian Cotton Leaf Worm)
Test compounds were applied by pipette from 10,000 ppm DMSO stock solutions into 24-well plates and mixed with agar. Lettuce seeds were placed onto the agar and the multi well plate was closed by another plate which contained also agar. After 7 days the compound was absorbed by the roots and the lettuce grew into the lid plate. The lettuce leaves were then cut off into the lid plate. Spodoptera eggs were pipetted through a plastic stencil onto a humid gel blotting paper and the lid plate was closed with it. The samples were assessed for mortality, anti-feedant effect and growth inhibition in comparison to untreated samples 6 days after infestation.
The following compounds gave an effect of at least 80% in at least one of the three categories (mortality, anti-feeding, or growth inhibition) at a test rate of 12.5 ppm: […]

CC(NC(=O)c1cc(C(F)(F)F)cc(C2(C)CC2(F)F)c1)c1ncnn1-c1ncccn1 (centres unmarked) [P88, 3-(2,2-difluoro-1-methyl-cyclopropyl)-N-[1-(2-pyrimidin-2-yl-1,2,4-triazol-3-yl)ethyl]-5-(trifluoromethyl)benzamide]
≥ 80%: percent effect (mortality or growth inhibition) at 200 ppm [1] | mortality at 50 ppm [2] | percent control (mortality, anti-feedant effect or growth inhibition) at 200 ppm [3] | percent effect (mortality or growth inhibition) at 200 ppm [4] | mortality at 12 ppm [5] | percent control (mortality, anti-feedant effect or growth inhibition) at 200 ppm [6] | percent effect (mortality or growth inhibition) at 200 ppm [7]

C[C@@H](c1ncnn1-c1ncccn1)N(CC1CC1)C(=O)c1cc(C2CC2)cc(C(F)(F)F)c1 [P73, 3-cyclopropyl-N-(cyclopropylmethyl)-N-[(1S)-1-(2-pyrimidin-2-yl-1,2,4-triazol-3-yl)ethyl]-5-(trifluoromethyl)benzamide]
≥ 80%: percent effect (mortality or growth inhibition) at 200 ppm [1] | percent control (mortality, anti-feedant effect or growth inhibition) at 200 ppm [3] | percent effect (mortality or growth inhibition) at 200 ppm [4] | mortality at 12 ppm [5] | percent control (mortality, anti-feedant effect or growth inhibition) at 200 ppm [6] | mortality at 200 ppm [8] | percent effect (mortality or growth inhibition) at 200 ppm [7]

CC(NC(=O)c1cc(C2CC2)cc(C(F)(F)F)c1)c1ncnn1-c1ncccn1 (centres unmarked) [P24, 3-cyclopropyl-N-[1-(2-pyrimidin-2-yl-1,2,4-triazol-3-yl)ethyl]-5-(trifluoromethyl)benzamide]
≥ 80%: percent effect (mortality or growth inhibition) at 200 ppm [1] | mortality at 50 ppm [2] | percent control (mortality, anti-feedant effect or growth inhibition) at 200 ppm [3] | percent effect (mortality or growth inhibition) at 200 ppm [4] | mortality at 12 ppm [5] | mortality at 200 ppm [8] | percent effect (mortality or growth inhibition) at 200 ppm [7] | mortality at 500 ppm [9]

CC(NC(=O)c1cc(C2CC2)cc(C(F)(F)F)c1)c1ncnn1-c1ncc(Br)cn1 (centres unmarked) [P81, N-[1-[2-(5-bromopyrimidin-2-yl)-1,2,4-triazol-3-yl]ethyl]-3-cyclopropyl-5-(trifluoromethyl)benzamide]
≥ 80%: percent effect (mortality or growth inhibition) at 200 ppm [1] | percent control (mortality, anti-feedant effect or growth inhibition) at 200 ppm [3] | percent effect (mortality or growth inhibition) at 200 ppm [4] | percent control (mortality, anti-feedant effect or growth inhibition) at 200 ppm [6] | percent effect (mortality or growth inhibition) at 200 ppm [7]

CC(NC(=O)c1cc(OCC(F)F)cc(C2CC2)c1)c1ncnn1-c1ncccn1 (centres unmarked) [P61, 3-cyclopropyl-5-(2,2-difluoroethoxy)-N-[1-(2-pyrimidin-2-yl-1,2,4-triazol-3-yl)ethyl]benzamide]
≥ 80%: percent effect (mortality or growth inhibition) at 200 ppm [1] | percent control (mortality, anti-feedant effect or growth inhibition) at 200 ppm [3] | percent effect (mortality or growth inhibition) at 200 ppm [4] | mortality at 12 ppm [5] | percent control (mortality, anti-feedant effect or growth inhibition) at 200 ppm [6] | mortality at 200 ppm [8]

Cc1nc(C(C)NC(=O)c2cc(C(F)(F)F)cc(C(C)(C)C#N)c2)n(-c2ncc(Br)cn2)n1 (centres unmarked) [P77, N-[1-[2-(5-bromopyrimidin-2-yl)-5-methyl-1,2,4-triazol-3-yl]ethyl]-3-(1-cyano-1-methyl-ethyl)-5-(trifluoromethyl)benzamide]
≥ 80%: percent effect (mortality or growth inhibition) at 200 ppm [1] | percent control (mortality, anti-feedant effect or growth inhibition) at 200 ppm [3] | percent effect (mortality or growth inhibition) at 200 ppm [4] | mortality at 12 ppm [5] | percent control (mortality, anti-feedant effect or growth inhibition) at 200 ppm [6] | percent effect (mortality or growth inhibition) at 200 ppm [7]

Cc1nc(C(C)NC(=O)c2cc(C3CC3)cc(C(F)(F)F)c2)n(-c2ncc(Br)cn2)n1 (centres unmarked) [P80, N-[1-[2-(5-bromopyrimidin-2-yl)-5-methyl-1,2,4-triazol-3-yl]ethyl]-3-cyclopropyl-5-(trifluoromethyl)benzamide]
≥ 80%: percent effect (mortality or growth inhibition) at 200 ppm [1] | percent control (mortality, anti-feedant effect or growth inhibition) at 200 ppm [3] | percent effect (mortality or growth inhibition) at 200 ppm [4] | percent control (mortality, anti-feedant effect or growth inhibition) at 200 ppm [6] | percent effect (mortality or growth inhibition) at 200 ppm [7]

Cc1nc(C(C)NC(=O)c2cc(C3CC3)cc(C(F)(F)F)c2)n(-c2ncccn2)n1 (centres unmarked) [P86, 3-cyclopropyl-N-[1-(5-methyl-2-pyrimidin-2-yl-1,2,4-triazol-3-yl)ethyl]-5-(trifluoromethyl)benzamide]
≥ 80%: percent effect (mortality or growth inhibition) at 200 ppm [1] | percent control (mortality, anti-feedant effect or growth inhibition) at 200 ppm [3] | percent effect (mortality or growth inhibition) at 200 ppm [4] | mortality at 12 ppm [5] | percent control (mortality, anti-feedant effect or growth inhibition) at 200 ppm [6] | percent effect (mortality or growth inhibition) at 200 ppm [7]

CC(c1ncnn1-c1ncccn1)N(CC1CC1)C(=O)c1cc(C2CC2)nc(C(F)(F)F)c1 (centres unmarked) [P55, 2-cyclopropyl-N-(cyclopropylmethyl)-N-[1-(2-pyrimidin-2-yl-1,2,4-triazol-3-yl)ethyl]-6-(trifluoromethyl)pyridine-4-carboxamide]
≥ 80%: percent effect (mortality or growth inhibition) at 200 ppm [1] | mortality at 50 ppm [2] | percent effect (mortality or growth inhibition) at 200 ppm [4] | percent effect (mortality, anti-feeding or growth inhibition) at 12.5 ppm [10] | mortality at 12 ppm [5] | percent effect (mortality or growth inhibition) at 200 ppm [7] | mortality at 500 ppm [9]

CC(NC(=O)c1cc(C(F)(F)F)cc(C(C)(C)C#N)c1)c1ncnn1-c1ccccn1 (centres unmarked) [P75, 3-(1-cyano-1-methyl-ethyl)-N-[1-[2-(2-pyridyl)-1,2,4-triazol-3-yl]ethyl]-5-(trifluoromethyl)benzamide]
≥ 80%: percent effect (mortality or growth inhibition) at 200 ppm [1] | percent control (mortality, anti-feedant effect or growth inhibition) at 200 ppm [3] | mortality at 12 ppm [5] | percent control (mortality, anti-feedant effect or growth inhibition) at 200 ppm [6] | percent effect (mortality or growth inhibition) at 200 ppm [7]
